Experimental data published in patent US10052320B2, “Substituted quinoxalines as FGFR kinase inhibitors” (ASTEX THERAPEUTICS LIMITED, priority 2011, dated 2018).
Several values for one entry are separate records, joined by “and”; a condition that tells them apart may be missing. Equal values may be shown once.

What was measured:
[1] = target: Ba/F3-FGFR3-transfected cells (Homo sapiens, UniProt P22607); assay: Ba/F3-FGFR3 (minus IL3) cellular proliferation assay, Alamar Blue; format: cell-based; details: for BAF3-FGFR 3 (MIN IL3) 384 well pIC50: minus IL3, 384 well; for BAF3-FGFR 3 (MIN IL3) 96 well pIC50: minus IL3, 96 well
Ba/F3-FGFR3-transfected cells, sequence (P22607 whole entry, change not shown): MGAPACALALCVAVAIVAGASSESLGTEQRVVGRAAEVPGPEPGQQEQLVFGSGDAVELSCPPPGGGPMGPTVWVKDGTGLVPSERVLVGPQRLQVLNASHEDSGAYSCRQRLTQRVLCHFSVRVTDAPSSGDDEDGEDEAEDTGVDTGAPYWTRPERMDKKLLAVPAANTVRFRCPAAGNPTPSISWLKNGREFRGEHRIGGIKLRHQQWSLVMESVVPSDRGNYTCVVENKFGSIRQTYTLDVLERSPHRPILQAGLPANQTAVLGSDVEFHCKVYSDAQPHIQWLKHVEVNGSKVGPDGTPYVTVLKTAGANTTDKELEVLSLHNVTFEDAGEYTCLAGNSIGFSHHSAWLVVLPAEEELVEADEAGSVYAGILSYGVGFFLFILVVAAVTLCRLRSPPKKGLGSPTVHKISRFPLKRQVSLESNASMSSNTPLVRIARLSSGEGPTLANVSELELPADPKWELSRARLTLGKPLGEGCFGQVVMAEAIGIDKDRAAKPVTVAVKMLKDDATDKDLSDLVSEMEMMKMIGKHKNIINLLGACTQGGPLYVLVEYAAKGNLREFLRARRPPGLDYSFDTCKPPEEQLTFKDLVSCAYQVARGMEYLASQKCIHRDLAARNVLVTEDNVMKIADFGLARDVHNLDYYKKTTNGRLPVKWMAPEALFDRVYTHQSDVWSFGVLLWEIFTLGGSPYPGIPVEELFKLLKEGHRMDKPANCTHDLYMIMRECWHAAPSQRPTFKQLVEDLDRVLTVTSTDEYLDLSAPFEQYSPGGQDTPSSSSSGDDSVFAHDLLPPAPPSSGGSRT
Outline: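 With or without 10 ng/ml murine IL3, transfected Ba/F3-FGFR3 cells in serum-containing RPMI-1640 receive compound for 24 h at 37 °C. Growth is then gauged by resazurin conversion over 4 h, read as relative fluorescence units.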

FGFR2 (h) = FGFR2 (h) (Homo sapiens, UniProt P21802); assay: FGFR2 (enzymatic assay), TR-FRET; format: biochemical; details: read-out: FGFR 2 pIC50 (converted)
FGFR2 (h), sequence (P21802 22-821): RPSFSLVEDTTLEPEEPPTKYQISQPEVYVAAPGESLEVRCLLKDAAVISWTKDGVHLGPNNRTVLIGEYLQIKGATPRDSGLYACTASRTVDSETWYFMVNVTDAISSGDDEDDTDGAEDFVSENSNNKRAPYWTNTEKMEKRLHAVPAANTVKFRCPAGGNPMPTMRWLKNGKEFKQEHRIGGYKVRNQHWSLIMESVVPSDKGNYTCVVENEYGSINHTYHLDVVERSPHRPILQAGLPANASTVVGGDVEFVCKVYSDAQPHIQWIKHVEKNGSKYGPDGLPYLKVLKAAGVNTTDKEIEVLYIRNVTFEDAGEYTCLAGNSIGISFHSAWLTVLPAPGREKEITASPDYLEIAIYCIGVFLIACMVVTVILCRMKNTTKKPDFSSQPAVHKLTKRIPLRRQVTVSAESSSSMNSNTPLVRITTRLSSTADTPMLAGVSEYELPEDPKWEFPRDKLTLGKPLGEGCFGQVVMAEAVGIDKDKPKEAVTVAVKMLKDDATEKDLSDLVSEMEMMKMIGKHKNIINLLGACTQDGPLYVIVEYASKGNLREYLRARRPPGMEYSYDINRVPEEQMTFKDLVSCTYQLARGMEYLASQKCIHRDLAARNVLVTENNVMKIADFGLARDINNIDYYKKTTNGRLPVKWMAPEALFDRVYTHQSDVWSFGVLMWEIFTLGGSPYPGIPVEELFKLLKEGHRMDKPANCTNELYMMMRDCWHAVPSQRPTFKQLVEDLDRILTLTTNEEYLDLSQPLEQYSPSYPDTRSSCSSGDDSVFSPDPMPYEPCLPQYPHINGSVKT
Procedure: In a final reaction volume of 30 μL, FGFR2 (h) (150 ng/ml) was incubated with 50 mM HEPES pH 7.5, 6 mM MnCl2, 1 mM DTT, 0.1 mM Na3VO4, 0.01% Triton-X-100, 500 nM Btn-Flt3 and 0.4 μM ATP in the presence of compound (1% DMSO final). […] Time-Resolved Fluorescence Resonance Energy Transfer (TR-FRET) signal (ex340 nm. Em 620 nm, em 655 nm) was measured afterwards and results are expressed in (Relative Fluorescence Units).

[2] = tested on: Ba/F3-Flt3-transfected cells in the presence of 10 ng/ml murine IL3; assay: Ba/F3-Flt3 (plus IL3) cellular proliferation counterscreen, Alamar Blue; format: cell-based; details: Mus musculus; plus 10 ng/ml murine IL3; read-out: BAF3-FLT3 (PLUS IL3) 384 well pIC50 (converted)
[3] = target: T1, Ba/F3-Flt3-transfected cells (Homo sapiens, UniProt P36888, cells depend on it, form not given); assay: Ba/F3-Flt3 (minus IL3) cellular proliferation assay, Alamar Blue; format: cell-based; details: minus IL3
T1 sequence (P36888 1-993): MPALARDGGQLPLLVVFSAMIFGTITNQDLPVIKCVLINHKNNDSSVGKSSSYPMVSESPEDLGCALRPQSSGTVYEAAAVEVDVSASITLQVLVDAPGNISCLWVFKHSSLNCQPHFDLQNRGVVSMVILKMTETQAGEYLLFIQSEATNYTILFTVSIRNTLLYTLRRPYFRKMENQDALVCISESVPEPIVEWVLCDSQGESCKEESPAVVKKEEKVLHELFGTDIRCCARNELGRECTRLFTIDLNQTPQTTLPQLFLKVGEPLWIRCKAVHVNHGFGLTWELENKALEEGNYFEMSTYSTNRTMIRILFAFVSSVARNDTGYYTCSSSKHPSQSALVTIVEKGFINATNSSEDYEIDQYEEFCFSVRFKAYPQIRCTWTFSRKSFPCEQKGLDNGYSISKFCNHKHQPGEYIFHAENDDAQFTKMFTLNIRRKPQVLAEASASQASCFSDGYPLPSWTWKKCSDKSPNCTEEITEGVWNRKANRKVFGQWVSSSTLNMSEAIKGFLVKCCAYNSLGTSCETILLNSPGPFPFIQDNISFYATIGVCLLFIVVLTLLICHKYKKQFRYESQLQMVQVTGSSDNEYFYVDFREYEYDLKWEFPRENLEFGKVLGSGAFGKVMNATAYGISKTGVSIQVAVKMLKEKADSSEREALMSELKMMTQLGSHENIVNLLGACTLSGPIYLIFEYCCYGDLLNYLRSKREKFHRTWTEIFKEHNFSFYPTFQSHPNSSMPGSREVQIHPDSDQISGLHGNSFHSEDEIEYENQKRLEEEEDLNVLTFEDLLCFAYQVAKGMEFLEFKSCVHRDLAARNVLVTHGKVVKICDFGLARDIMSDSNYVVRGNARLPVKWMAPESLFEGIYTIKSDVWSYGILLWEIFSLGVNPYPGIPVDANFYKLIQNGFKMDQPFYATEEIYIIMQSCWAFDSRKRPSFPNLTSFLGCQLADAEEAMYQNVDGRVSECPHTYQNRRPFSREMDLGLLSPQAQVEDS

Row | SMILES | BAF3-FGFR 3 (MIN IL3) 384 well pIC50 [1] | IC50 (FGFR2 (h)) | IC50 [2] | melting point | BAF3-FLT3 (MIN IL3) 384 well pIC50 [3] | BAF3-FGFR 3 (MIN IL3) 96 well pIC50 [1] | BAF3-FLT3 (MIN IL3) 96 well pIC50 [3]
1 | COc1cc(OC)cc(N(CCCO)c2ccc3ncc(-c4ccc(N5CCNCC5)nc4)nc3c2)c1 [Compound 48] | 6.87 | 4.07 nM | 4170 nM | 184 °C | 5.44 | – | –
2 | COc1cc(OC)cc(N(CC2CC2)c2ccc3ncc(-n4cncn4)nc3c2)c1 [Compound 50] | <5 | ~708 nM | > 10000 nM | 168 °C | <5 | <5 | <5
3 | COc1cc(OC)cc(N(CC2CC2)c2ccc3ncc(-c4cnco4)nc3c2)c1 [Compound 55] | ~5.25 | 47.9 nM | > 10000 nM | 152 °C | <5 | 5.65 | <5
4 | COc1cc(OC)cc(N(CC2CC2)c2ccc3ncc(-c4nccn4C)nc3c2)c1 [Compound 60] | <5 | 1410 nM | > 10000 nM | 175 °C | <5 | <5 | <5
5 | COc1cc(OC)cc(N(CC2CC2)c2ccc3ncc(-n4nccc4C)nc3c2)c1 [Compound 62] | <5 | > 1000 nM | > 10000 nM | 139 °C | <5 | <5 | <5
6 | COc1cc(OC)cc(N(CC2CC2)c2ccc3ncc(-c4cn[nH]n4)nc3c2)c1 [Compound 69] | <5 | 166 nM | > 10000 nM | 173 °C and 172 °C | <5 | <5 | <5
7 | COc1cc(OC)cc(N(CC2CC2)c2ccc3ncc(-c4cnnn4C)nc3c2)c1 [Compound 72] | <5 | 479 nM | > 10000 nM | 169 °C | 5.09 | <5 | <5
8 | CNC(=O)OCCN(c1cc(OC)cc(OC)c1)c1ccc2ncc(-c3ccc(NC(=O)OC(C)(C)C)nc3)nc2c1 [Compound 80] | 5.09 | 912 nM | > 10000 nM | 214 °C | <5 | – | –
9 | COc1cc(OC)cc(N(CC2CC2)c2ccc3ncc(-c4nnnn4C)nc3c2)c1 [Compound 83] | <5 | > 1000 nM | > 10000 nM | 168 °C | <5 | <5 | <5
10 | COc1cc(OC)cc(N(CC2CC2)c2ccc3ncc(-c4ocnc4C)nc3c2)c1 [Compound 104] | <5 | ~417 nM | > 10000 nM | 141 °C | <5 | – | –
11 | COc1cc(OC)cc(N(CC2CO2)c2ccc3ncc(-c4ccc(N)nc4)nc3c2)c1 (centres unmarked) [Compound 110] | 6.81 | 17.4 nM | > 10000 nM | 169 °C | 5.04 | – | –
12 | COc1cc(OC)cc(N(CCO)c2ccc3ncc(-c4ccc(OC)nc4)nc3c2)c1 [Compound 111] | ~6.17 | 23.4 nM | > 10000 nM | 195 °C | <5 | – | –
